According to publication PMC8287630 (Journal for Immunotherapy of Cancer, 2021):

How the values were obtained:
[1] = tested on: several human cancer cell lines; details: cited from earlier work
[2] = tested on: DCs and T cells; test: Immunomodulatory effects in vivo (immunophenotype of DCs and T cells, cytokines); design: species or system mice; details: CHA-SME 35 mg/kg; versus control treatment
Description: The in vivo immunomodulatory effects of CHA-SME were evaluated by analyzing the immunophenotype of LYM and cytokine production. LYM (DCs and T cells) infiltrated into the blood, tumor, and other important immune organs (MLNs and spleen) were quantitatively analyzed by flow cytometry. Fresh tumors were cut into small pieces and digested at 37°C for 40 min. Fresh MLNs and spleens were cut into small pieces and ground into single-cell suspensions. The cells were collected, washed, and incubated with different fluorescein-conjugated antibodies. The cell suspensions were filtered through 400-mesh sieves after two washes and analyzed by flow cytometry ([…] Biosciences, San Diego, California, USA). For immunophenotype analysis of T cells, CD45 +CD3+CD44+CD62L+cells and CD45 +CD3+CD44+CD62 L-cells were considered to be central memory T cells (TCM) and effector memory T cells (TEM), respectively. For DC maturation analysis, the expression levels of MHC I, CD40, CD80, and CD86 on DCs were examined. Different cytokines (IFN-γ, tumor necrosis factor α (TNF-α), and IL-10) in tumors, MLNs, spleens, and blood were quantitatively determined using bead-based LEGENDplex kits following the manufacturer's protocol.

[3] = Pharmacokinetic study in beagle dogs; type: in vivo; details: dog, plasma, 30 mg/kg
Description: (§1) Pharmacokinetic studies of free CHA and CHA-SME were performed using SD rats and beagle dogs. […] At 5, 15, 30 min, 1, 2, 4, 6, and 8 hours, approximately 0.2 mL of blood was collected from the orbital into an anticoagulant tube and centrifuged at 4500 rpm for 10 min to separate the plasma. All plasma samples were stored frozen at –80°C until LC-MS/MS analysis (TSQ Quantum Access MAX; Thermo Fisher Scientific, Waltham, MA, USA).

[4] = In vivo safety evaluation (body weight, hematology, serum biochemistry, histopathology); design: species or system mice; details: for histopathology of heart, liver, spleen, lung and kidney: HE staining, versus control group; for animal behavior and body weight after administration: tumor-bearing mice
Description: The in vivo safety of CHA-SME was evaluated based on body weight, hematological examination, and histopathological examination in mice. Body weight was monitored throughout the experiment. At the end of the in vivo antitumor experiment, peripheral blood was collected for hematological examination using an automatic hematology analyzer (MEK-7222 K; Nihon Kohden, Tokyo, Japan). Additionally, the serum was separated to detect […] (ALT), […] (AST), blood urea nitrogen (BUN), and creatinine (CRE) to evaluate hepatic and renal functions using an automatic biochemical analyzer (Accute TBA-40FR; TOSHIBA, Kawasaki, Japan). Heart, liver, spleen, lung, kidney, stomach, small intestine, and MLNs were collected, fixed in 4% PFA, and subjected to histopathological examination using HE staining.

[5] = Pharmacokinetic study in rats; type: in vivo; details: male, SD, rat, plasma, po, 30 mg/kg
Description: as §1

[6] = tested on: G422 glioma; test: In vivo antitumor efficacy, subcutaneous G422 glioma model; design: species or system ICR mice; details: 14 days; CHA 20 mg/kg i.p., CHA-SME 35 mg/kg p.o.
Description: A subcutaneous glioma tumor model was established in female ICR mice, as mentioned above. […] The positive control group was orally administered TMZ (50 mg/kg) for 5 days. The blank CHA-SME group was orally administered with blank CHA-SME for 14 days. At the end of the experiment, all mice were euthanized, and the tumors were collected, weighed, and photographed. […] The positive control group was orally administered TMZ (50 mg/kg) for 5 days. […] The CHA-SME group was orally administered CHA-SME (35 mg/kg) for 14 days. At the end of the experiment, all mice were euthanized, and the tumors were collected, weighed, and photographed.

[7] = type: in vivo; details: mice, oral 1 mg/kg, 30 min; figure 5C
Description: To evaluate the uptake of CHA-SME in the intestinal tissues and MLNs, Cou-6-labeled CHA-SME were orally administered to mice at 1 mg/kg. Thirty minutes later, the mice were sacrificed and intestinal segments (including duodenum, jejunum, ileum, and colon,~1 cm each) and MLNs were surgically collected, placed in embedding compound, frozen in liquid nitrogen, and dissected. The slices were fixed with 4% PFA, stained with TRITC phalloidin and DAPI, and imaged using CLSM. Additionally, MLNs were ground into single-cell suspensions and the fluorescence intensity was determined by flow cytometry.
To investigate the lymphatic transport of CHA-SME in vivo, mice were i.p. administered 3.0 mg/kg cycloheximide to block chylomicron flow.[37 38] One-hour postinjection, DiR-labeled or Cou-6-labeled CHA-SME was orally administered at 1.0 mg/kg. The mice were examined as described above.

[8] = tested on: Caco-2 cell monolayers; test: Transport within Caco-2 cell monolayers (CLSM); type: cell-based, human; details: 4 hours incubation
Description: To establish an in vitro Caco-2 cell monolayer model, Caco-2 cells were plated in a 12-well Transwell plate with a 0.4 µm pore polycarbonate membrane insert (Corning, Corning, New York, USA). A total of 0.5 mL of cell culture medium containing 2×10^5 cells was added in the upper compartment of each Transwell insert, and 1.5 mL of cell culture medium was added in the lower compartment. The culture medium in both compartments was changed every other day in the initial 14 days and every day in the following 7 days. After 21 days of culture, transepithelial electrical resistance (TEER) was measured using Millicell-ERS (Millipore, Billerica, Massachusetts, USA) to monitor cell monolayer integrity. A TEER value exceeding 800 Ω was selected for subsequent transepithelial transport study of CHA-SME.
For the transepithelial transport study of CHA-SME, Caco-2 cell monolayers cultured in Transwell plates were incubated with Cou-6-labeled CHA-SME for 4 hours at 37°C. Then, the cells were washed thrice with cold PBS, and the polycarbonate membrane with cultured cells was carefully cut from the insert. After fixation with 4% PFA and staining with TRITC phalloidin and DAPI, the excised membrane was placed in a glass slide and examined by CLSM.

Row | bioavailability ([3]; oral, read-out: oral absolute bioavailability) [%] | AUC ([3]; po, read-out: AUC Mean±SD) [ng·h/mL] | AUC [5] [ng·h/mL] | SMILES | effective dose for inhibition of cell proliferation / induction of apoptosis [1] | proportion of infiltrating CD3+, CD4+ and CD8+ T cells in brain glioma tissues [2] | histopathology of heart, liver, spleen, lung and kidney [4] | animal behavior and body weight after administration [4] | tumor growth [6] | percentage of Cou-6-positive lymphocytes in MLNs [7] [%] | green fluorescence within Caco-2 cell monolayers [8]
1 | 5.85 | 692 ± 179 | 35.8 ± 10.9 | O=C(/C=C/c1ccc(O)c(O)c1)O[C@@H]1C[C@](O)(C(=O)O)C[C@@H](O)[C@H]1O [CHA, Chlorogenic acid] | higher than 100 µM | no significant difference | no obvious organ lesion | tolerated the regimens well | able to inhibit tumor growth | – | –
2 | – | – | – | Cn1nnc2c(C(N)=O)ncn2c1=O [TMZ, temozolomide] | – | – | a certain degree of fragmentation and pathological changes in the heart and spleen | marked weight loss and sparse hair | – | – | –
3 | – | – | – | CCN(CC)c1ccc2cc(-c3nc4ccccc4s3)c(=O)oc2c1 [Cou-6, Coumarin-6] | – | – | – | – | – | 7.2 | negligible green fluorescence
